Measured values reported in ChEMBL document CHEMBL4831524, “AZD0284, a Potent, Selective, and Orally Bioavailable Inverse Agonist of Retinoic Acid Receptor-Related Orphan Receptor C2” (J Med Chem, 2021).

Tests used:
in vitro [1] = conditions: human, liver microsomes
physchem = conditions: 1-octanol/phosphate buffered saline, pH 7.4
[2] = biological target: Voltage-gated inwardly rectifying potassium channel KCNH2 (Homo sapiens, UniProt Q12809)
[3] = Intrinsic permeability of compound from apical to basolateral side in human Caco2 cells; format: ADME, cell-based; conditions: Caco-2
[4] = Apparent permeability across apical to basolateral side in human Caco-2 cells; format: ADME, cell-based
cells = conditions: Homo sapiens, Th17, 96 h
[5] = rat, in vivo, po, 1 mg/kg
in vitro [6] = conditions: human, hepatocytes
in vivo [7] = conditions: Han Wistar, rat, po, 1 mg/kg
in vitro [8] = conditions: rat, hepatocytes
in vivo [9] = conditions: Han Wistar, rat, po, 1 mg/kg; remark: listed apart in the source
in vivo [10] = conditions: Han Wistar, rat, po, 1 mg/kg; remark: listed apart in the source

Chain of Voltage-gated inwardly rectifying potassium channel KCNH2 (Q12809 whole entry): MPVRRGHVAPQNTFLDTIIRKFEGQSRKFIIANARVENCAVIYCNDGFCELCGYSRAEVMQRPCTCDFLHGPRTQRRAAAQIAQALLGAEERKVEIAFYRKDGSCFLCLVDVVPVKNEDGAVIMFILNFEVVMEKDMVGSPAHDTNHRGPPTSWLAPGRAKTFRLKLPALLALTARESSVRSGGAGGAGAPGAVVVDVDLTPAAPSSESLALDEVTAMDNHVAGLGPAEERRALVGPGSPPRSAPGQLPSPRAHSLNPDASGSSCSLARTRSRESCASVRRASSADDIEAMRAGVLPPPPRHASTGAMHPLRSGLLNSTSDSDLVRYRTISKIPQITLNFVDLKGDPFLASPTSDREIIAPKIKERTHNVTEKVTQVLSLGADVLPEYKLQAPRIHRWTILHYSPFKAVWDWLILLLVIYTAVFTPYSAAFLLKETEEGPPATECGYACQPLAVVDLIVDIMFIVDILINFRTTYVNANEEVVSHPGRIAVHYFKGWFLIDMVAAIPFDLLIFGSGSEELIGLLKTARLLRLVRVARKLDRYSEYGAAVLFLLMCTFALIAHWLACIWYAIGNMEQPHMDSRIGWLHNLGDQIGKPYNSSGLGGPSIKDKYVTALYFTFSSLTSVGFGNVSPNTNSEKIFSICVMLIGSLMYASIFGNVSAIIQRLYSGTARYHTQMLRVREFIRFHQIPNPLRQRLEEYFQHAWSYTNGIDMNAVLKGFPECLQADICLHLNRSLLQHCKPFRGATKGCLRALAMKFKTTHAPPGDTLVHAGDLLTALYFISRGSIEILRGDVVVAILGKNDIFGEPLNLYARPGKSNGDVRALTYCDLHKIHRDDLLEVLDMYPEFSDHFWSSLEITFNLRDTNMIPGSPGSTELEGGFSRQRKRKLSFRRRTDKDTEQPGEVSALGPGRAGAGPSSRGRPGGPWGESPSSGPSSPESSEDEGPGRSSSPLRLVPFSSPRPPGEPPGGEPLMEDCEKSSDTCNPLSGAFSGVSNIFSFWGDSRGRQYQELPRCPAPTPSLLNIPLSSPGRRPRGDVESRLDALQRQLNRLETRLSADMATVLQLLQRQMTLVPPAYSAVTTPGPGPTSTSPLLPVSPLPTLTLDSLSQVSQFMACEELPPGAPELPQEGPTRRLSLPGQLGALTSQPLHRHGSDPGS

CCS(=O)(=O)c1ccc(C(NC(=O)Cc2ccccn2)C(=O)Nc2ccc(C(O)(C(F)(F)F)C(F)(F)F)cc2)nc1 (stereo not given)
microsomal CLint (in vitro [1]): < 3 µL/min/mg | logD (physchem): 2.8 | IC50 [2]: 4.1 µM

COCC(=O)N1Cc2cc(S(=O)(=O)CC3CC3)ccc2C1C(=O)Nc1ccc(C(O)(C(F)(F)F)C(F)(F)F)cc1 (stereo not given)
microsomal CLint (in vitro [1]): 19 µL/min/mg | logD (physchem): 3.2

CNC(=O)N1Cc2cc(S(C)(=O)=O)ccc2C1C(=O)Nc1ccc(C(O)(C(F)(F)F)C(F)(F)F)cc1 (stereo not given)
microsomal CLint (in vitro [1]): < 3 µL/min/mg | logD (physchem): 2.5

CCS(=O)(=O)c1ccc(C(NC(=O)Cc2nccs2)C(=O)Nc2ccc(C(O)(C(F)(F)F)C(F)(F)F)cc2)nc1 (stereo not given)
microsomal CLint (in vitro [1]): 16 µL/min/mg | Pm [3]: 11 | logD (physchem): 3.1 | Papp A→B [4]: 2.5 ×10⁻⁶ cm/s | IC50 [2]: 5.5 µM

CCS(=O)(=O)c1ccc(C(CC(=O)N(C)C)C(=O)Nc2ccc(C(O)(C(F)(F)F)C(F)(F)F)cc2)cc1 (stereo not given)
microsomal CLint (in vitro [1]): 5 µL/min/mg | Pm [3]: 24 | logD (physchem): 3.1 | IC50 (cells): 0.091 µM | Papp A→B [4]: 1.4 ×10⁻⁶ cm/s

CCS(=O)(=O)c1ccc([C@H](CC(=O)NC)C(=O)Nc2ccc(C(O)(C(F)(F)F)C(F)(F)F)cc2)cc1
microsomal CLint (in vitro [1]): < 3 µL/min/mg | logD (physchem): 3.1 | IC50 [2]: > 40 µM

CC(=O)N1Cc2cc(S(=O)(=O)NC3CC3)ccc2C1C(=O)Nc1ccc(C(O)(C(F)(F)F)C(F)(F)F)cc1 (stereo not given)
microsomal CLint (in vitro [1]): 11 µL/min/mg | logD (physchem): 3.2

CS(=O)(=O)c1ccc2c(c1)CN(C(=O)CO)C2C(=O)Nc1ccc(C(O)(C(F)(F)F)C(F)(F)F)cc1 (stereo not given)
microsomal CLint (in vitro [1]): < 3 µL/min/mg | logD (physchem): 1.9

CC(=O)N1Cc2cc(S(=O)(=O)CCO)ccc2C1C(=O)Nc1ccc(C(O)(C(F)(F)F)C(F)(F)F)cc1 (stereo not given)
microsomal CLint (in vitro [1]): 3.1 µL/min/mg | logD (physchem): 2.1

COC(=O)N1Cc2cc(S(C)(=O)=O)ccc2C1C(=O)Nc1ccc(C(O)(C(F)(F)F)C(F)(F)F)cc1 (stereo not given)
microsomal CLint (in vitro [1]): < 3 µL/min/mg | logD (physchem): 2.9

CCS(=O)(=O)c1ccc2c(c1)CN(C(=O)C1CCO1)C2C(=O)Nc1ccc(C(O)(C(F)(F)F)C(F)(F)F)cc1 (stereo not given)
microsomal CLint (in vitro [1]): < 3 µL/min/mg | logD (physchem): 2.6

CNS(=O)(=O)c1ccc2c(c1)CN(C(=O)C1CCO1)C2C(=O)Nc1ccc(C(O)(C(F)(F)F)C(F)(F)F)cc1 (stereo not given)
microsomal CLint (in vitro [1]): < 3 µL/min/mg | logD (physchem): 2.6

CNS(=O)(=O)c1ccc2c(c1)CN(C=O)C2C(=O)Nc1ccc(C(O)(C(F)(F)F)C(F)(F)F)cc1 (stereo not given)
microsomal CLint (in vitro [1]): 6.8 µL/min/mg | logD (physchem): 2.7

CC(=O)N1Cc2cc(S(=O)(=O)CC3CC3)ccc2C1C(=O)Nc1ccc(C(O)(C(F)(F)F)C(F)(F)F)cc1 (stereo not given)
microsomal CLint (in vitro [1]): < 3 µL/min/mg | logD (physchem): 3.4

CC(=O)N1Cc2cc(S(=O)(=O)CC3(F)CC3)ccc2C1C(=O)Nc1ccc(C(O)(C(F)(F)F)C(F)(F)F)cc1 (stereo not given)
microsomal CLint (in vitro [1]): 7.9 µL/min/mg | logD (physchem): 3.1

CC(=O)N1CCc2cc(S(C)(=O)=O)ccc2C1C(=O)Nc1ccc(C(O)(C(F)(F)F)C(F)(F)F)cc1 (racemic)
microsomal CLint (in vitro [1]): < 3 µL/min/mg | logD (physchem): 2.9

CC(=O)NC(C(=O)Nc1ccc(C(O)(C(F)(F)F)C(F)(F)F)cc1)c1ccc(S(C)(=O)=O)cc1 (racemic)
microsomal CLint (in vitro [1]): < 3 µL/min/mg | logD (physchem): 2.7

CC(=O)N1Cc2cc(S(C)(=O)=O)ccc2C1C(=O)Nc1ccc(C(O)(C(F)(F)F)C(F)(F)F)cc1 (racemic)
Vdss [5]: 2 L/kg | microsomal CLint (in vitro [1]): < 3 µL/min/mg | logD (physchem): 2.4 | hepatocyte CLint (in vitro [6]): < 1 µL/min/1e6 cells | half-life (in vivo [7]): 4.9 h | hepatocyte CLint (in vitro [8]): < 1 µL/min/1e6 cells | bioavailability (in vivo [9]): 40% | CL/F (in vivo [10]): 6.3 mL/min/kg
